# In patent US20200281956A1, “ANTIBACTERIAL COMPOSITION CONTAINING A DEOXYHEXOSE ALKYL MONOACETAL OR MONOETHER” (TEREOS STARCH & SWEETENERS BELGIUM, priority 2015, published 2020):
# Key:
# S. aureus [1] = test: MIC on S. aureus staphylococcal strains (microplate dilution, CLSI); format: cell-based, Staphylococcus aureus
# Description: (§1) The strains tested are reference strains and cultures that are multi-antibiotic resistant; these are clinical strains that were isolated at the “Hospice de Lyon” and are as follows: • Staphylococcus S. aureus: ATCC® 29213™, ATCC 25923, • Methicillin-resistant S. aureus staphylococcus strains (Lac-Deleo USA 300), (MU 3), (HT 2004-0012), LY 199-0053, (HT 2002-0417), (HT 2006-1004), • Daptomycin-resistant S. aureus staphylococcus strains (ST 2015-0188) (ST 2014 1288), (ST 2015-0989). • Enterococci: E. faecalis (ATCC® 29212™, clinical strains of E. faecalis enterococcus, isolated from urine: strain 015206179901 (hereinafter 9901), strain 015205261801 (hereinafter 1801) • Enterococci: E. faecium (CIP 103510), clinical strains of E. faecium enterococcus: Van A 0151850763 (hereinafter Van A); strain 015 205731401 (hereinafter 1401), • Listeria: L. monocytogenes (CIP 103575), clinical strains isolated from blood culture (015189074801, LM1), strain isolated from cerebrospinal fluid (015170199001, LM2), clinical strain isolated from blood culture (015181840701, LM3).
# (§2) The cultures studied, freshly isolated (after incubation on blood agar at 37° C. for 18 h), are taken up in sterile water (10 ml) until a 0.5 McFarland (Mc), i.e. 1 to 2×10^8 CFU (bacteria)/cm^3, suspension is obtained. The bacterial suspension was then diluted in order to obtain a final concentration of 1×10^6 CFU/cm^3.
# (§3) Each well contains a final identical amount of Mueller-Hinton medium (rich medium enabling bacterial culture) and of bacteria of 0.5×10^6 CFU/cm^3.
# The compounds of interest to be tested are dissolved in ethanol or DMSO at 25 mg/ml before being diluted, with the dilution being doubled each time, to different concentrations. On the multi-well plate, a first series was provided comprising the culture medium without the compound of interest to be tested. This corresponds to the growth control (control wells). These controls serve as a reference for comparing bacterial growth with those of the following wells comprising different concentrations of the compound of interest to be tested. The second series of wells comprises the parent solution of the compound of interest to be tested for a concentration in the well of 256 mg/l (7 mM). Each series of wells was diluted, with the dilution being doubled each time, until the last series for a final concentration of 0.25 mg/l (0.0007 mM). Each concentration is duplicated within the same plate. The plate is incubated for 18 h at 37° C. […] In the case of antibacterial activity, bacterial growth is inhibited which is reflected by the absence of appearance of cloudiness or bacterial pellet.
# The minimum inhibitory […] (MIC) are determined on Gram-positive bacterial strains according to the recommendations of the “Clinical Laboratory Standards Institute” (Clinical-Laboratory-Standards-Institute, 6th ed. Approved standard M100-S17. CLSI, Wayne, Pa., 2007).
# The cultures studied, freshly isolated (after incubation on blood agar at 37° C. for 18 h), are taken up in sterile water (10 ml) until a 0.5 McFarland (Mc), i.e. to 10^8 CFU (bacteria)/cm^3, suspension is obtained. The bacterial suspension was then diluted in order to obtain a final concentration of 10^6 CFU/cm^3.
# L. monocytogenes [2] = test: MIC on strains of Listeria (microplate dilution, CLSI); format: cell-based, Listeria monocytogenes
# Description: as §1, §2, §3
# The compounds of interest to be tested are dissolved in ethanol or DMSO at 25 mg/ml before being diluted, with the dilution being doubled each time, to different concentrations. On the multi-well plate, a first series was provided comprising the culture medium without the compound of interest to be tested. This corresponds to the growth control (control wells). These controls serve as a reference for comparing bacterial growth with those of the following wells comprising different concentrations of the compound of interest to be tested. The second series of wells comprises the parent solution of the compound of interest to be tested for a concentration in the well of 256 mg/l (7 mM). Each series of wells was diluted, with the dilution being doubled each time, until the last series for a final concentration of 0.25 mg/l (0.0007 mM). Each concentration is duplicated within the same plate. The plate is incubated for 18 h at 37° C. […]
# (§4) The minimum inhibitory […] (MIC) are determined on Gram-positive bacterial strains according to the recommendations of the “Clinical Laboratory Standards Institute” (Clinical-Laboratory-Standards-Institute, 6th ed. Approved standard M100-S17. CLSI, Wayne, Pa., 2007). […]
# E. faecium = test: MIC on E. faecium enterococcal strains (microplate dilution, CLSI); format: cell-based, Enterococcus faecium
# Description: as §1, §2, §3
# (§5) The compounds of interest to be tested are dissolved in ethanol or DMSO at 25 mg/ml before being diluted, with the dilution being doubled each time, to different concentrations. […]
# as §4
# E. faecalis = test: MIC on E. faecalis enterococcal strains (microplate dilution, CLSI); format: cell-based, Enterococcus faecalis
# Description: as §1, §2, §3, §5, §4
# L. monocytogenes [3] = settings: literature, in words; cited from earlier work
# S. aureus [4] = settings: literature, in words; cited from earlier work
# esterases = settings: cited from earlier work
molecule,measurement,setting,value
"3-O-Dodecyl-1,4-D-sorbitan, 5-O-dodecyl-1,4-D-sorbitan and 6-O-dodecyl-1,4-D-sorbitan [reference compound]",Minimum inhibitory concentration (MIC),"S. aureus [1]; S. aureus ATCC 25923, reference strain",32 µg/mL
same,Minimum inhibitory concentration (MIC),"S. aureus [1]; S. aureus ATCC 29213, reference strain",32 µg/mL
same,Minimum inhibitory concentration (MIC),S. aureus [1]; daptomycin-resistant S. aureus ST 2014 1288,64 µg/mL
same,Minimum inhibitory concentration (MIC),S. aureus [1]; daptomycin-resistant S. aureus ST 2015-0188,64 µg/mL
same,Minimum inhibitory concentration (MIC),S. aureus [1]; daptomycin-resistant S. aureus ST 2015-0989,256 µg/mL
same,Minimum inhibitory concentration (MIC),S. aureus [1]; methicillin-resistant S. aureus HT 2002-0417,32 µg/mL
same,Minimum inhibitory concentration (MIC),S. aureus [1]; methicillin-resistant S. aureus HT 2004-0012,32 µg/mL
same,Minimum inhibitory concentration (MIC),S. aureus [1]; methicillin-resistant S. aureus HT 2006-1004,32 µg/mL
same,Minimum inhibitory concentration (MIC),S. aureus [1]; methicillin-resistant S. aureus LY 199-0053,32 µg/mL
same,Minimum inhibitory concentration (MIC),S. aureus [1]; methicillin-resistant S. aureus Lac-Deleo USA 300,32 µg/mL
same,Minimum inhibitory concentration (MIC),S. aureus [1]; methicillin-resistant S. aureus MU 3,64 µg/mL
same,Minimum inhibitory concentration (MIC),L. monocytogenes [2]; L. monocytogenes CIP 103575,32 µg/mL
same,Minimum inhibitory concentration (MIC),L. monocytogenes [2]; L. monocytogenes clinical strain LM1 (blood culture),16 µg/mL
same,Minimum inhibitory concentration (MIC),L. monocytogenes [2]; L. monocytogenes clinical strain LM2 (cerebrospinal fluid),32 µg/mL
same,Minimum inhibitory concentration (MIC),L. monocytogenes [2]; L. monocytogenes clinical strain LM3 (blood culture),32 µg/mL
same,Minimum inhibitory concentration (MIC),E. faecium; E. faecium CIP 103510,16 µg/mL
same,Minimum inhibitory concentration (MIC),E. faecium; E. faecium clinical strain 1401,8 µg/mL
same,Minimum inhibitory concentration (MIC),E. faecium; E. faecium clinical strain Van A,16 µg/mL
same,Minimum inhibitory concentration (MIC),E. faecalis; E. faecalis ATCC 29212,8 µg/mL
same,Minimum inhibitory concentration (MIC),E. faecalis; E. faecalis clinical strain 1801 (urine),8 µg/mL
same,Minimum inhibitory concentration (MIC),E. faecalis; E. faecalis clinical strain 9901 (urine),16 µg/mL
Dodecanoyl sucrose,activity against L. monocytogenes,L. monocytogenes [3],particularly active
same,inhibition of the growth of S. aureus,S. aureus [4],weakly inhibiting the growth
CCCCCCCCCCCC(=O)OCC(O)CO (stereo not shown) [monolaurin],degradation / half-life (ester function sensitive to esterases),esterases,quickly degraded
"CCCCCCCCCCCC1OCC2O[C@H](OC)C(O)C(O)[C@H]2O1 (stereo partly drawn) [compound 1d, Methyl 4,6-O-dodecylidene-α-D-galactopyranoside]",melting point,,115 °C
